Assay results taken from patent publication US8815946B2, “Inhibition of proliferation and fibrotic response of activated corneal stromal cells” (University of Pittsburgh—of the Commonwealth System of …, priority 2008, dated 2014).

Legend:
[1] = test system: fibronectin; assay: Immunocytochemical analysis of fibronectin expression, rabbit corneal stromal cells; assay type: cell-based; conditions: rabbit corneal cells treated with TGF-β1
Procedure: (§1) FIGS. 6A-6B. Immunocytochemical analysis of fibronectin expression. Normal human stromal cells (FIG. 6A) or rabbit corneal stromal cells (FIG. 6B) in P2 growing in DMEM/F12 with 10% FBS were subcultured into 35 mm tissue culture dishes. After 24 hrs of incubation, the media were replaced with DMEM/F12 medium containing 1% FBS and TGF-β1 with or without (control) 10 mM EP and incubated for four days (media were changed every 24 hours). The cells were fixed and double stained for fibronectin (green) and phalloidin (red) using an indirect fluorescence technique as described herein.
(§2) For immunocytochemical analyses, the cells were cultured on glass cover slips or tissue culture dishes. Cells were rinsed with phosphate-buffered saline (PBS), fixed with paraformaldehyde-lysine-periodate and permeabilized with PIPES buffer containing 0.2% Triton X-100, as described previously (Guerriero et al., Invest. Opthalmol. Vis. Sci. 2007; 48: 627-635). Fixed and permeabilized cells were reacted with 10% heat-inactivated goat serum in PBS, pH 7.5, for 45 minutes to block the nonspecific binding of the secondary antibody, rinsed with PBS, and then treated with the primary and secondary antibodies as described previously (Guerriero et al. Invest. Opthalmol. Vis. Sci. 2007; 48: 627-635). Primary antibodies included monoclonal rat anti-α smooth muscle actin (SMA) and anti-fibronectin. […]

[2] = test system: fibronectin; assay: Immunocytochemical analysis of fibronectin expression, human stromal cells; assay type: cell-based; conditions: human corneal cells treated with TGF-β1
Procedure: as §1, §2

[3] = test system: α-SMA; assay: Immunocytochemical analysis of α-SMA expression, human corneal stromal cells; assay type: cell-based; conditions: 10 mM EP
Procedure: FIG. 3. Immunocytochemical analysis of α-SMA expression. Human corneal stromal cells in P2 growing in DMEM/F12 with 10% FBS were subcultured into desired number of 35 mm tissue culture dishes. After 24 hrs of incubation, the media were replaced with DMEM/F12 medium containing 1% FBS and TGF-β1 with or without (control) 10 mM EP and incubated for two and four days (media were changed every 24 hours). The cells were fixed and double stained for α-SMA (green) and phalloidin (red) using an indirect fluorescence technique as described herein.
as §2

[4] = test system: extracellular matrix genes; assay: Microarray analysis (Affymetrix U133 Plus 2.0) of corneal stromal cells; assay type: cell-based, human
Procedure: Total RNA was processed and analyzed using the appropriate Affymetrix products (Affymetrix Inc., Santa Clara, Calif.). Eukaryote Poly A RNA internal standards (GeneChip® Poly-A RNA Control Kit from Affymetrix Inc.) were added to the samples, and the mRNA component of the total RNA was reverse-transcribed in the presence of a T7-(dT)24 primer (GeneChip® One-Cycle cDNA Synthesis Kit from Affymetrix Inc.). The resulting cDNA was extracted (GeneChip® Sample Cleanup Module from Affymetrix Inc.) and transcribed in vitro in the presence of biotin-labeled ribonucleotides (Labeling Kit from Affymetrix Inc.). The biotinylated RNA was extracted and fragmented (GeneChip® Sample Cleanup Module from Affymetrix Inc.: 20 μg material fragmented for 35 minutes at 94° C.). Each sample was hybridized overnight to a U133 PLUS™ 2.0 GeneChip (GeneChip® Human Genome U133 Plus 2.0 Array from Affymetrix Inc.). The chips were then washed, developed and scanned in Agilent CHIPSCANNER™ (Affymetrix Inc., Santa Clara, Calif.). Raw data was processed and analyzed using Affymetrix GENECHIP™ Operating System (GCOS) v 1.0.
The U133 PLUS™ 2.0 GeneChips contain 54,675 panels, each targeting a specific transcript sequence. Approximately 20,600 gene products identified by Entrez Gene numbers are redundantly targeted by 46,000 panels: the remaining panels target products which are less well characterized. Affymetrix GCOS™1.0 software was used to assess the presence or absence of the target sequence of each panel. Expression levels were normalized so that the mean for each sample was equal to the global mean for all samples. Panels, which were absent for every sample in either experiment, were omitted from further consideration. This left 23284 panels encoding 12258 unique, characterized (Entrez Gene) genes.
In earlier work, the changes in the gene expression upon activation of keratocyte to myofibroblast phenotype induced by TGF-β1 was studied. In the present analysis, as a cross check the present, consistent TGFβ-evoked (>2-fold) increases were checked with the previous data. Transition from keratocytes to fibroblasts increased 520 panels, and decreased 700 panels. The 599 unique, characterized genes so altered were compared with a previously acquired database of 873 genes known to be altered by phenotypic transition either from keratocyte to fibroblast or from fibroblast to myofibroblast. The number of genes concordant between these sets was 170, 4.9-fold greater than random chance (p=1.65×10^−130, chi-squared test). Extracellular matrix components: 244 panels (143 unique genes) with the Gene Ontology Cellular Component code 5578 (extracellular matrix) were selected. Of these, 28 were TGFβ-1 modulated in the present experiment and 49 were Consistent 5-fold increases in myofibroblasts.
In Table 1 are ECM genes altered by phenotype change, which are also affected by ethyl pyruvate. Genes in bold were altered during phenotype shifts only in previous experiments, genes in italics were altered by phenotype shift only in the present experiment, and genes in normal font were altered by phenotype shifts in both present and prior experiments.

[5] = three consistent (2-fold) changes of four potential
[6] = two consistent (2-fold) changes of four potential

For CCOC(=O)C(C)=O [ethyl pyruvate], which “fibronectin deposition in the matrix (immunocytochemical)” value [1] is on record?
Its value is “concentration dependent downregulation”.

And the “fibronectin deposition in the matrix (immunocytochemical)” value [2]?
Its value is “concentration dependent downregulation”.

What about the “TGF-β1 induced expression of α-SMA (immunocytochemical)” value [3] of the same compound?
Its value is “downregulated”.

And the “latent transforming growth factor beta binding protein 1 expression change” value ([4]; four consistent (2-fold) changes of four potential)?
Its value is “(−4.1)”.

And the “consistent increase of RGC32, HMOX1, GDF15 and TRIB3 expression” value ([4]; myofibroblasts, only four characterized genes)?
The value was 5 fold.

What about the “Tissue factor pathway inhibitor 2 expression change” value [4, 5] of the same compound?
The value was “(−4.8)”.

What about the “collagen, type III, alpha 1 expression change” value [4, 5] of the same compound?
The value was “alpha 1 (−4.9)”.

What about the “collagen, type X, alpha1 expression change” value [4, 5] of the same compound?
The value was “alpha1 (−8.1)”.

And the “laminin, beta 1 expression change” value [4, 5]?
The value was “(−3.8)”.

And the “matrix metallopeptidase 10 (stromelysin 2) expression change” value [4, 5]?
The value was “(stromelysin 2) (3.8)”.

And the “periostin, osteoblast specific factor expression change” value [4, 5]?
The value was “specific factor (−9.7)”.

What about the “secreted phosphoprotein 1 (osteopontin) expression change” value [4, 5] of the same compound?
The value was “(osteopontin) (2.7)”.

What about the “Collagen, type VIII, alpha 1 expression change” value [4, 6] of the same compound?
Its value is “alpha 1 (−4.0)”.

What about the “EGF-containing fibulin-like extracellular matrix protein1 expression change” value [4, 6] of the same compound?
Its value is “(−2.6)”.

What about the “SPARC-like 1 expression change” value [4, 6] of the same compound?
Its value is “SPARC-like 1 (−3.3)”.

What about the “chondroitin sulfate proteoglycan 2 (versican) expression change” value [4, 6] of the same compound?
The value was “(versican) (−5.9)”.

And the “collagen triple helix repeat containing 1 expression change” value [4, 6]?
The value was “containing 1 (−4.3)”.

What about the “collagen, type I, alpha 2 expression change” value [4, 6] of the same compound?
Its value is “alpha 2 (−2.7)”.

What about the “collagen, type V, alpha 1 expression change” value [4, 6] of the same compound?
Its value is “alpha 1 (−6.2)”.

What about the “collagen, type VIII, alpha 2 expression change” value [4, 6] of the same compound?
The value was “alpha 2 (−3.8)”.

What about the “collagen, type XII, alpha1 expression change” value [4, 6] of the same compound?
Its value is “alpha1 (−2.8)”.

What about the “fibronectin 1 expression change” value [4, 6] of the same compound?
Its value is “fibronectin 1 (−2.3)”.

And the “heparan sulfate proteoglycan 2 (perlecan) expression change” value [4, 6]?
The value was “(perlecan) (−3.0)”.

What about the “laminin, alpha 4 expression change” value [4, 6] of the same compound?
The value was “(−2.4)”.

What about the “lysyl oxidase expression change” value [4, 6] of the same compound?
Its value is “lysyl oxidase (−4.0)”.

What about the “matrix metallopeptidase 1 (interstitial collagenase) expression change” value [4, 6] of the same compound?
Its value is “collagenase) (5.9)”.

And the “secreted protein, acidic, cysteine-rich (osteonectin) expression change” value [4, 6]?
Its value is “(osteonectin) (−8.4)”.

What about the “tenascin C (hexabrachion) expression change” value [4, 6] of the same compound?
The value was “(hexabrachion) (−7.4)”.

And the “collagen, type I, alpha 1 expression change” value ([4]; two consistent (2-fold) ethyl pyruvate changes of four potential (2 phenotypes, 2 experiments))?
Its value is “alpha 1 (−2.9)”.
